Test results as given in PMC3893073, “Structural and Functional Analyses of a Sterol Carrier Protein in Spodoptera litura” (PLoS ONE, 2014).
Entries after “also recorded” stand apart in the source; their conditions may differ. Like-named read-outs stand apart in the source and are kept apart here.

Assays:
S. litura larvae = assay: Diet bioassay for inhibition of growth of S. litura larvae; type: in vivo, Spodoptera litura; conditions: for inhibitory effect on the growth of S. litura larvae: newly hatched larvae, artificial diet with 3, 12 and 48 µg/g diet; for body weight of the treated larvae: 13 days post egg hatching, increasing concentrations 3, 12, 48 µg/g diet, compared to the control
Experimental: Newly hatched S. litura larvae (30 larvae per treatment) were reared in artificial diet in presence of each chemical at different concentrations of 3, 12 and 48 µg/g diet. Control larvae were fed in the diet with diluted acetone (solvent for the chemical). Fresh diet was provided every other day. Larvae development was monitored until pupation. Larvae were weighted at 13 days post egg hatching when most of the larvae were at 5th instar stage.

SlSCPx-2 = SlSCPx-2 (Spodoptera litura, UniProt D1GJ60); assay: 1,8-ANS fluorescence displacement (competitive binding) assay, wild type rSlSCPx-2; conditions: for RBAchol / RBApal: IC50 of wild type for the same ligand (=100%)
Experimental: Binding of the fluorescent probe 1, 8-ANS to sterol carrier protein (SlSCPx-2) is measured by relative increase in fluorescent intensity. Steady-state fluorescence spectra were measured on a Cary Eclipse fluorescence spectrophotometer (Varian, Mulgrave, Australia) using a 1-cm path length cuvette. The binding was monitored by measuring the fluorescence signal between 400 and 600 nm following excitation at 350 nm. Slit widths were set to 5 and 10 nm for the excitation and emission monochromators, respectively. […] All measurements were performed at room temperature and the samples were equilibrated for 5 min prior to measurement. At each of the given concentrations, at least three replicates were performed.
(§1) After the incubation, each potential ligand at a serial of concentration (0–100 µM) was added into the 1, 8-ANS-protein mixture for another 2.5 min and the fluorescence intensity of the 1,8-ANS-protein complex was measured as previously described. The control was the reaction of ANS probe and a series of concentration (0–100 µM) of ligands without the protein. To calculate binding activity of the ligands and the protein, the fluorescence intensity of the controls were subtracted from the total fluorescence intensity of the 1, 8-ANS-protein complex in the presence of ligands tested. Each ligand replacement assay was repeated for three times.

A. aegypti = system: A. aegypti; design: method as in PMID 15627652; conditions: cited from earlier work
H. armigera neonates = conditions: cited from earlier work
SlSCPx-2 T128A = SlSCPx-2 T128A (Spodoptera litura, UniProt D1GJ60, T518A); assay: biochemical; type: binding
Experimental: as §1, with “Binding of the fluorescent probe 1, 8-ANS to SlSCPx-2 can be competed with physiological ligands. SlSCPx-2 at 15 µM was incubated with 1, 8-ANS at 15 µM in the reaction buffer (pH 7.0) at room temperature for 2.5 min. After” for “After”
(§2) Various mutations in His-tagged SlSCPx-2 were constructed by using the Stratagene QuickChange Site-Directed Mutagenesis Kit (TAKARA, Dalian, China). Recombined plasmid containing SlSCPx-2 fused with the His-Tag sequence in a pPROEXTM HTa vector was used as a template. Two complementary primer pairs containing the desired mutations were used to construct each gene mutant. All mutant sequences were confirmed by DNA sequencing. The binding affinity of the mutants with the various ligands was examined using the fluorescence displacement assay as described above.

SlSCPx-2 F89W = SlSCPx-2 F89W (Spodoptera litura, UniProt D1GJ60, F479W); assay: biochemical; type: binding
Experimental: as §1, with “Binding of the fluorescent probe 1, 8-ANS to SlSCPx-2 can be competed with physiological ligands. SlSCPx-2 at 15 µM was incubated with 1, 8-ANS at 15 µM in the reaction buffer (pH 7.0) at room temperature for 2.5 min. After” for “After”
as §2

SlSCPx-2 F110W = SlSCPx-2 F110W (Spodoptera litura, UniProt D1GJ60, F500W); assay: biochemical; type: binding
Experimental: (§3) Binding of the fluorescent probe 1, 8-ANS to SlSCPx-2 can be competed with physiological ligands. SlSCPx-2 at 15 µM was incubated with 1, 8-ANS at 15 µM in the reaction buffer (pH 7.0) at room temperature for 2.5 min. […] […] To calculate binding activity of the ligands and the protein, the fluorescence intensity of the controls were subtracted from the total fluorescence intensity of the 1, 8-ANS-protein complex in the presence of ligands tested. Each ligand replacement assay was repeated for three times.
as §2

SlSCPx-2 Q131A = SlSCPx-2 Q131A (Spodoptera litura, UniProt D1GJ60, Q521A); assay: biochemical; type: binding
Experimental: as §3, §2

SlSCPx-2 I115M = SlSCPx-2 I115M (Spodoptera litura, UniProt D1GJ60, I505M); assay: biochemical; type: binding
Experimental: as §3, §2

SlSCPx-2 W66E = SlSCPx-2 W66E (Spodoptera litura, UniProt D1GJ60, W456E); assay: biochemical; type: binding
Experimental: as §3, §2

SlSCPx-2 F89A = SlSCPx-2 F89A (Spodoptera litura, UniProt D1GJ60, F479A); assay: biochemical; type: binding
Experimental: as §3, §2

SlSCPx-2 F53W = SlSCPx-2 F53W (Spodoptera litura, UniProt D1GJ60, F443W); assay: biochemical; type: binding
Experimental: as §3, §2

SlSCPx-2 F53A = SlSCPx-2 F53A (Spodoptera litura, UniProt D1GJ60, F443A); assay: biochemical; type: binding
Experimental: as §3, §2

SlSCPx-2 F110A = SlSCPx-2 F110A (Spodoptera litura, UniProt D1GJ60, F500A); assay: biochemical; type: binding
Experimental: as §1, with “Binding of the fluorescent probe 1, 8-ANS to SlSCPx-2 can be competed with physiological ligands. SlSCPx-2 at 15 µM was incubated with 1, 8-ANS at 15 µM in the reaction buffer (pH 7.0) at room temperature for 2.5 min. After” for “After”
as §2

[1] = wild type, displacement of 15 µM 1,8-ANS from 15 µM SlSCPx-2, pH 7.0, read-out: IC50
[2] = IC50 of cholesterol (=100%) divided by IC50 of each chemical

## C=CCc1cccc(/C=N/NC(=O)COc2ccccc2C)c1O [AG-205/07775053]
S. litura larvae
  inhibitory effect on the growth of S. litura larvae: inhibited the growth; also recorded: high inhibitory effect; also recorded: had inhibitory effect
SlSCPx-2
  RBA (relative binding affinity): 0.6%
SlSCPx-2; [1]
  IC50: 8630 ± 393 µM

## CCCCCCOC(=O)c1ccc(NC(=O)CCC)cc1 [AG-205/36813059]
S. litura larvae
  inhibitory effect on the growth of S. litura larvae: inhibited the growth; also recorded: a certain degree of biological activity; also recorded: had inhibitory effect
SlSCPx-2
  RBA (relative binding affinity): 210%
SlSCPx-2; [1]
  IC50: 23.9 ± 1.38 µM

## Cc1cc(OCCCCc2c(C)n[nH]c2C)ccc1Cl [AG-664/14117324]
S. litura larvae
  body weight of the treated larvae: decreased, significantly
  inhibitory effect on the growth of S. litura larvae: inhibited the growth; also recorded: had inhibitory effect
SlSCPx-2
  RBA (relative binding affinity): 1943%
SlSCPx-2; [1]
  IC50: 2.58 ± 0.2 µM

## CCc1ccc(C(=O)/C=C/Nc2ccc(NC(C)=O)cc2)cc1 [AH-487/41731687]
S. litura larvae
  body weight of the treated larvae: decreased, significantly
  inhibitory effect on the growth of S. litura larvae: inhibited the growth; also recorded: had inhibitory effect
SlSCPx-2
  RBA (relative binding affinity): 1166%
SlSCPx-2; [1]
  IC50: 4.3 ± 0.63 µM

## CC(=O)Nc1ccc(Nc2nc(-c3ccc(Cl)c(Cl)c3)cs2)cc1 [AeSCPI-1, reference compound]
SlSCPx-2
  RBA (relative binding affinity): 31%
SlSCPx-2; [1]
  IC50: 161 ± 5.03 µM
A. aegypti; A. aegypti larvae
  time to kill the larvae post the treatment: ≤ 3 days
H. armigera neonates
  lethality to H. armigera neonates: lethal

## COc1cccc(-n2sc3c(c2=S)-c2cc(Cl)ccc2NC3(C)C)c1 [AeSCPI-2, reference compound]
SlSCPx-2
  RBA (relative binding affinity): 91%
SlSCPx-2; [1]
  IC50: 55 ± 0.66 µM
A. aegypti
  mortality in A. aegypti: caused death at larva-to-pupa transition period

## CCCCC/C=C\C/C=C\C/C=C\C/C=C\CCCC(=O)O [Arachidonate, arachidonic acid]
SlSCPx-2
  IC50: 18.1 ± 0.83 µM
SlSCPx-2; [2]
  RBA (relative binding affinity): 277%

## CC(C)CCC[C@@H](C)[C@H]1CC[C@H]2[C@@H]3CC=C4C[C@@H](O)CC[C@]4(C)[C@H]3CC[C@]12C [Cholesterol, reference compound]
SlSCPx-2; wild type
  RBAchol / RBApal: 100%
SlSCPx-2; [1]
  IC50: 50.1 ± 0.8 µM
SlSCPx-2 T128A
  IC50: 20.8 ± 1.32 µM
SlSCPx-2 F89W
  IC50: 5.58 ± 1.23 µM
SlSCPx-2 F110W
  IC50: 231 ± 2.36 µM
SlSCPx-2 Q131A
  IC50: 2690 ± 34.2 µM
SlSCPx-2 I115M
  IC50: 34.3 ± 1.53 µM
SlSCPx-2 W66E
  IC50: 974 ± 10.7 µM
SlSCPx-2 F89A
  IC50: 1743 ± 1.3 µM
SlSCPx-2 F53W
  IC50: 4669 ± 23.2 µM
SlSCPx-2 F53A
  IC50: 7300 ± 280 µM

## CC(C)[C@@H](C)/C=C/[C@@H](C)[C@H]1CC[C@H]2C3=CC=C4C[C@@H](O)CC[C@]4(C)[C@H]3CC[C@]12C [Ergosterol]
SlSCPx-2
  IC50: 167.6 ± 0.34 µM
  RBA (relative binding affinity): 30%

## CCCCC/C=C\C/C=C\CCCCCCCC(=O)O [Linoleic acid]
SlSCPx-2
  RBA (relative binding affinity): 35%
SlSCPx-2; [1]
  IC50: 143 ± 0.99 µM

## CCCCCCCC(=O)O [Octanoate, reference compound]
SlSCPx-2; [2]
  RBA (relative binding affinity): 23%
SlSCPx-2; [1]
  IC50: 217.9 ± 1.53 µM

## CCCCCCCC/C=C\CCCCCCCC(=O)O [Oleic acid]
SlSCPx-2
  IC50: 24.4 ± 1.14 µM
  RBA (relative binding affinity): 206%

## CCCCCCCCCCCCCCCC(=O)O [Palmitic acid]
SlSCPx-2
  RBA (relative binding affinity): 85%
SlSCPx-2; wild type
  RBAchol / RBApal: 100%
SlSCPx-2; [1]
  IC50: 59.1 ± 1.29 µM
SlSCPx-2 F110A
  IC50: 41.7 ± 1.62 µM
SlSCPx-2 T128A
  IC50: 32.8 ± 1.52 µM
SlSCPx-2 F89W
  IC50: 77.5 ± 1.51 µM
SlSCPx-2 F110W
  IC50: 503.3 ± 2.7 µM
SlSCPx-2 Q131A
  IC50: 354.8 ± 2.55 µM
SlSCPx-2 I115M
  IC50: 6617 ± 38.2 µM
SlSCPx-2 W66E
  IC50: 67.3 ± 3.43 µM
SlSCPx-2 F53W
  IC50: 5777 ± 28 µM
SlSCPx-2 F53A
  IC50: 71.7 ± 0.84 µM

## CCCCCCCCCCCCCCCCCC(=O)O [Stearic acid]
SlSCPx-2
  RBA (relative binding affinity): 126%
SlSCPx-2; [1]
  IC50: 39.8 ± 1.17 µM

## CC[C@H](/C=C/[C@@H](C)[C@H]1CC[C@H]2[C@@H]3CC=C4C[C@@H](O)CC[C@]4(C)[C@H]3CC[C@]12C)C(C)C [Stigmasterol]
SlSCPx-2
  IC50: 190 ± 2.29 µM
  RBA (relative binding affinity): 26%
